Residue numbers refer to the chain shown, from its start. Where a SMILES comes first, the peptide text is derived from it. Bridges are numbered along the chain shown (N, C = ends).
How the values were obtained:
Test in all cases: Heterologous whole cell competition binding
Conditions in all cases: heterologous competition of 125I-sCT(8-32), whole cells, mean ± S.E.M., SEM
hCTR N365A = target: T1, hCTR N365A (Homo sapiens, UniProt P30988, N365A)
T1 construct: c-Myc (N); expressed in transfected cells
T1 sequence (P30988 25-474 N365A): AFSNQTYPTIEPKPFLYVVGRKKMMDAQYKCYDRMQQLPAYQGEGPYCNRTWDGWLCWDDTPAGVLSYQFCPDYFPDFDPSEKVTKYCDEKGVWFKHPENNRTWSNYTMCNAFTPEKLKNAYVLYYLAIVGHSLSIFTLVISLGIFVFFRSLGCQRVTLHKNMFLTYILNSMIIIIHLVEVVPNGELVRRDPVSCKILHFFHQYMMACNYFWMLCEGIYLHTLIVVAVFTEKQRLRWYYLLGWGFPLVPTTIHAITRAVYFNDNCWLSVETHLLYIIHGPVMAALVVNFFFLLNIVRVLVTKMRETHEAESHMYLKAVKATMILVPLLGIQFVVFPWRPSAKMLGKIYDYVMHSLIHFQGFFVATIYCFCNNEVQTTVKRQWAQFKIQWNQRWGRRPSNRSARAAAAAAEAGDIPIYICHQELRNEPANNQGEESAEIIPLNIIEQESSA
Procedure, shortened: (§1)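 Whole cells expressing each receptor mutant were incubated overnight with radioligand and competitor, after which unbound ligand was removed and bound radioactivity counted on a gamma counter. Inhibition values were corrected for radioligand occupancy by the Cheng-Prusoff equation and reported as pKi.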

hCTR T280A = target: T2, hCTR T280A (Homo sapiens, UniProt P30988, T280A)
T2 construct: expressed in transfected cells
T2 sequence (P30988 25-474 T280A): T1 sequence (P30988 25-474 N365A) with T256A, A341N
Procedure, shortened: as §1

hCTR L368A = target: T3, hCTR L368A (Homo sapiens, UniProt P30988, L368A)
T3 construct: c-Myc (N); expressed in transfected cells
T3 sequence (P30988 25-474 L368A): T1 sequence (P30988 25-474 N365A) with A341N, L344A
Procedure, shortened: as §1

hCTR E294A = target: T4, hCTR E294A (Homo sapiens, UniProt P30988, E294A)
T4 construct: c-Myc (N); expressed in transfected cells
T4 sequence (P30988 25-474 E294A): T1 sequence (P30988 25-474 N365A) with E270A, A341N
Procedure, shortened: as §1

hCTR G369A = target: T5, hCTR G369A (Homo sapiens, UniProt P30988, G369A)
T5 construct: c-Myc (N); expressed in transfected cells
T5 sequence (P30988 25-474 G369A): T1 sequence (P30988 25-474 N365A) with A341N, G345A
Procedure, shortened: as §1

Ki (hCTR N365A): 2.09 nM
Ki (hCTR T280A): 6.31 nM
Ki (hCTR L368A): 8.51 nM
Ki (hCTR E294A): 11.7 nM
Ki (hCTR G369A): 7.94 nM
Compound: CSCC[C@H](NC(=O)CNC(=O)[C@H](CO)NC(=O)[C@H](Cc1ccccc1)NC(=O)[C@H](CCCNC(=N)N)NC(=O)[C@H](Cc1c[nH]cn1)NC(=O)[C@H](Cc1ccccc1)NC(=O)[C@H](CC(N)=O)NC(=O)[C@H](CC(N)=O)NC(=O)[C@H](CC(C)C)NC(=O)[C@H](CC(N)=O)NC(=O)[C@H](CCCNC(=N)N)NC(=O)[C@H](Cc1c[nH]c2ccccc12)NC(=O)[C@H](Cc1ccc(O)cc1)NC(=O)[C@H](C)NC(=O)[C@H](CO)NC(=O)[C@H](CC(C)C)NC(=O)[C@@H](NC(=O)[C@@H]1CSSC[C@H](N)C(=O)N[C@@H](CO)C(=O)N[C@@H](CC(N)=O)C(=O)N[C@@H](CC(C)C)C(=O)N[C@@H](CO)C(=O)N[C@@H]([C@@H](C)O)C(=O)N1)C(C)C)C(=O)NCC(=O)N[C@@H](Cc1ccccc1)C(=O)NCC(=O)N1CCC[C@H]1C(=O)N[C@@H](CCC(=O)O)C(=O)N[C@H](C(=O)N1CCC[C@H]1C(N)=O)[C@@H](C)O [pCT] (H-CSNLSTCVLSAYWRNLNNFHRFSGMGFGPETP-NH2; disulfide 1-7)

— paper PMC5908784, “Extracellular loops 2 and 3 of the calcitonin receptor selectively modify agonist binding and efficacy” (Biochemical Pharmacology, 2018)
